Laboratory results published in patent publication US8937038B2, “Composition containing peptide ligand that bonds with CXCR2 for treating infective and inflammatory diseases” (priority 2010, dated 2015).
Where no end group is shown, it is not given here. The star is where a group is joined. Palmitoyl = CCCCCCCCCCCCCCCC(=O)*

Key:
[1] = tested on: cecal ligation and puncture (CLP)-septic mice; details: Kuliopulos et al.; cited from earlier work
mouse neutrophils = assay: H2O2 production in mouse neutrophils; format: cell-based; details: neutrophils pretreated with SB225002 30 minutes, then Ac-PGP 20 μM; FIG. 13
Experimental: Mouse neutrophils were separated from peripheral blood using a Histopaque-1077 solution (Sigma) (Bae Y S et al. 2001 Blood. 97: 2854-2862). The neutrophils separated from normal mice were stimulated with various concentrations of Ac-PGP for 10 minutes in the presence of cytochalasin B (5 μM). To identify the role of mCXCR2, the neutrophils were pre-incubated in various concentrations of SB225002 or a vehicle (DMSO) for 30 minutes in a stationary environment, and Ac-PGP (20 μM) was added, and incubated for 10 minutes. H2O2 in a supernatant was measured using a H2O2 measurement kit (Molecular probe).
A death rate by CLP is correlated with the number of bacterial colonies in a peritoneal fluid. Therefore, an effect of the Ac-PGP on removal of bacteria in a peritoneal fluid was examined. […] In vitro disinfection activity of the Ac-PGP was examined using neutrophils derived from a mouse. The mouse neutrophils were kept for an hour to phagocytize E. coli, and then stimulated with various concentrations of Ac-PGP (0.1 to 100 nM) for 20 minutes. […] A reactive oxygen species such as hydrogen peroxide was known as an important molecule participating in the disinfection activity. Therefore, an effect of Ac-PGP on production of hydrogen peroxide in the mouse neutrophils was examined. […]

PBMCs = assay: Cytokine production by LPS-stimulated human PBMCs; format: cell-based; details: human PBMCs stimulated with LPS
Excerpt: (§1) All kinds of protocols used in human beings were approved by the Institutional Review Board (IRB) at Dong-A University Hospital, and prior consents were obtained from all blood donors. Peripheral blood was collected from healthy donors, and human peripheral monocytes were separated using a Histopaque-1077 gradient. Neutrophils were separated through methods such as dextran precipitation of red blood cell, hypotonic lysis, and usage of lymphocyte isolation medium gradient, as known in the related art (Bae, Y. S. et al. Blood 97, 2854-2862(2001)). The separated human leukocytes were used immediately.
(§2) Next, an effect of the Ac-PGP on production of cytokines by human neutrophils and PBMCs was examined. […] A human CXCR2 chemokine agonist CXCL8 had few effects on production of TNF-α or IFN-γ stimulated with LPS (FIG. 28 to FIG. 31). Therefore, the Ac-PGP could improve both antiseptic activities in leukocytes derived from human beings and mice.

human neutrophils = assay: Cytokine production by LPS-stimulated human neutrophils; format: cell-based; details: human neutrophils stimulated with LPS
Excerpt: as §1, §2

mouse splenocytes = assay: Cytokine release from LPS-stimulated mouse splenocytes (ELISA); format: cell-based; details: LPS 100 ng/ml
Experimental: Mouse splenocytes were positioned on an RPMI 1640 medium including 5% FBS in a 96-well plate, and maintained at 37° C. in a 5% CO2 incubator. Thereafter, the splenocytes were stationarily incubated with LPS (100 ng/ml) for 24 hours in the presence or absence of Ac-PGP. After 30 minutes, LPS was added to the cells and collected a cell-free supernatant, and then the supernatant was centrifuged, and TNF-α, IL-6 and IFN-γ were measured using ELISA (BD Biosciences Pharmingen). In regards to the effect of IFN-γ on production of pro-inflammatory cytokines induced by LPS, 5×10^5 cells/ml of the mouse splenocytes were stimulated with 100 ng/ml of LPS in the presence or absence IFN-γ (R&D) (at various concentrations of 1, 10, 100 and 1,000 IU/ml). Amounts of TNF-α and IL-6 were measured 20 hours after stationary incubation using ELISA (BD Biosciences Pharmingen).
An effect of the Ac-PGP on a pro-inflammatory cytokine in a peritoneal fluid by CLP was determined from 4 to 72 hours after the CLP. The CLP induced a remarkable increase in levels of pro-inflammatory cytokines (TNF-α, IL-1β and IL-6) within 24 hours (FIGS. 14 to 16). Injection of the Ac-PGP in a sepsis model by the CLP induced a remarkable change in levels of the cytokines. […] To evaluate an effect of the Ac-PGP on production of the pro-inflammatory cytokines by the LPS, in vitro production of TNF-α and IL-6 by the mouse splenocytes was evaluated. Direct release of the TNF-α and IL-6 from the mouse splenocytes by the LPS was suppressed by in vitro treatment with the Ac-PGP (FIGS. 17 and 18).
Since it was confirmed that the administration of the Ac-PGP improved in vivo production of IFN-γ, a direct effect of the Ac-PGP on production of IFN-γ by splenocytes was examined. […] Also, an effect of IFN-γ on production of the pro-inflammatory cytokines was also examined.

In the case of “pal-RTLFKAHMGQKHR (Palmitoyl-RTLFKAHMGQKHR) [x1/2pal-3]”, the survival rate [1] is given as “remarkable increase in survival rate”.

For `O=C(Nc1ccc([N+](=O)[O-])cc1O)Nc1ccccc1Br` [SB225002, reference compound], the “production of hydrogen peroxide by the Ac-PGP” value (mouse neutrophils) was “completely suppressed”.

With CXCL8: human CXCR2 chemokine agonist the “production of TNF-α” value (PBMCs; FIG. 29) was “few effects”, the “production of IFN-γ” value (PBMCs; FIG. 31) was “few effects” and the “production of TNF-α” value (human neutrophils; FIG. 28) was “few effects”. For the same molecule, the “production of IFN-γ” value (human neutrophils; FIG. 30) was “few effects”.

B1: KC: counterpart of mouse IL-8; mouse chemokine activating CXCR2 (protein, UniProt P12850 25-96, looked up)
Growth-regulated alpha protein: APIANELRCQCLQTMAGIHLKNIQSLKVLPSGPHCTQTEVIATLKNGREACLDPEAPLVQKIVQKMLKGVPK
In the case of B1, the “release of TNF-α by LPS” value (mouse splenocytes; 24 hours, FIG. 17) is reported as “could not suppress” and the “release of IL-6 by LPS” value (mouse splenocytes; 24 hours, FIG. 18) is reported as “could not suppress”.

B2: IFN-γ: type 1 cytokine (R&D) added to mouse splenocytes at 1 to 1,000 IU/ml (protein, UniProt P01580 23-155, looked up)
Interferon gamma: HGTVIESLESLNNYFNSSGIDVEEKSLFLDIWRNWQKDGDMKILQSQIISFYLRLFEVLKDNQAISNNISVIESHLITTFFSNSKAKKDAFMSIAKFEVNNPQVQRQAFNELIRVVHQLLPESSLRKRKRSRC
For B2, the “production of TNF-α by LPS” value (mouse splenocytes; 5×10^5 cells/ml, IFN-γ 1, 10, 100 and 1,000 IU/ml, 20 hours, FIG. 25) was “relieved production” and the “production of IL-6 by LPS” value (mouse splenocytes; 5×10^5 cells/ml, IFN-γ 1, 10, 100 and 1,000 IU/ml, 20 hours, FIG. 26) was “relieved production”.
